Experimental data as given in publication PMC5602078, “Rapid screening and identification of ACE inhibitors in snake venoms using at-line nanofractionation LC-MS” (Analytical and Bioanalytical Chemistry, 2017).
pIC50: −log10 of the molar value. Read-outs that look alike come from different tables or passages of the source. Where a SMILES comes first, the peptide text is derived from it. Where no end group is shown, it is not given here. [ ]: non-standard residue; d: D form. Phe(4-NO2) = N[C@@H](Cc1ccc([N+](=O)[O-])cc1)C(=O)O; pGlu = O=C1CC[C@@H](C(=O)O)N1; 2Abz = Nc1ccccc1C(=O)O

Assays:
[1] = target: T1, angiotensin-converting enzyme (ACE) from rabbit lung (Oryctolagus cuniculus, UniProt P12822); assay: ACE bioactivity assay, dose-response (concentration-response) curves of synthetic peptides; format: biochemical; design: angiotensin-converting enzyme (ACE) from rabbit lung; purchased Sigma-Aldrich (Zwijndrecht, The Netherlands); host or cells: rabbit lung tissue
T1 sequence (P12822 34-1310): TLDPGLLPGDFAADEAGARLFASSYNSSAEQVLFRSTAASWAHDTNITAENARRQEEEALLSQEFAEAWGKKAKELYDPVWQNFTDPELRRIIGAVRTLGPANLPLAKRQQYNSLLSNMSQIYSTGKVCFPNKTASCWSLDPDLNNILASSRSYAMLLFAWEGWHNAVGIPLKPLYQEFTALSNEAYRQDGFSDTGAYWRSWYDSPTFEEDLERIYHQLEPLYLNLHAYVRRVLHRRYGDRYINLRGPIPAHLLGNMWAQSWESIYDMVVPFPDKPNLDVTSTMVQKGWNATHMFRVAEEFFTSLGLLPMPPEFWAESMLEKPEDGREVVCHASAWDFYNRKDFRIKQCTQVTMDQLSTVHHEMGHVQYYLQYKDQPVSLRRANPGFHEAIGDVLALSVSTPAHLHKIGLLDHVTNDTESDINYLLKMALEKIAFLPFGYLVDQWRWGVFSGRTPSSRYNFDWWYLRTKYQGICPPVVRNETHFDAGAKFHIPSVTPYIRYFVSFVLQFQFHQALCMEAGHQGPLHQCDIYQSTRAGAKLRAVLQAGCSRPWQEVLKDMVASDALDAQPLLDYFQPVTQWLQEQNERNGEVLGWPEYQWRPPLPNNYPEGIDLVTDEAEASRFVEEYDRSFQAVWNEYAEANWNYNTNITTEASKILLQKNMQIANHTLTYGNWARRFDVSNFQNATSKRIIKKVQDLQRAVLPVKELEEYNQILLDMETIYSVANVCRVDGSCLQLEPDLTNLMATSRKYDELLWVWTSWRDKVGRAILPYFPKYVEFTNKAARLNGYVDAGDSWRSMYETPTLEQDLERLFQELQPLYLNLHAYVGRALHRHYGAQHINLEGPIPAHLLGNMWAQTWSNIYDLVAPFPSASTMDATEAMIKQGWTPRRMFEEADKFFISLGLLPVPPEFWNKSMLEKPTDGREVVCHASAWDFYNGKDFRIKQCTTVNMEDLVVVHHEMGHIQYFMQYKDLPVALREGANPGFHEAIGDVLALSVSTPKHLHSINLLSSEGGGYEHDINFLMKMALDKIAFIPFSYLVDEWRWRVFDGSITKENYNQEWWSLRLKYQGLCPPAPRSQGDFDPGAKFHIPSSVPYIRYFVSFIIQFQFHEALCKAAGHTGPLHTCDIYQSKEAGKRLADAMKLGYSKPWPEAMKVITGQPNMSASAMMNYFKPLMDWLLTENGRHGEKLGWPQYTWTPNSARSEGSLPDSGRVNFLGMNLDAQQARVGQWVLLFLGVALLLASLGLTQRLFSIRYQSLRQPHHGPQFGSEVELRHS
Procedure: Water was purified using a Milli-Q Plus system from Millipore (Amsterdam, The Netherlands). Acetonitrile (ACN) (ULC/MS grade) and formic acid (FA) were obtained from Biosolve (Valkenswaard, The Netherlands). […] DMSO was obtained from Riedel-de Haën (Zwijndrecht, The Netherlands).
(§1) ACE was stored at −20 °C as a 1-U/mL solution in 50% glycerol/50% 0.15 M Tris-HCl pH 8.3 supplemented with 5 mM ZnCl2. […] The assay was performed in a 0.15 M Tris-HCl buffer pH 8.3 supplemented with 0.5 M NaCl. […] This solution was then added directly to the nanofractionated plates at room temperature using a Multidrop™ 384 Reagent Dispenser (Thermo Fisher Scientific, Ermelo, The Netherlands). The final volume of the assay was 75 μL/well. The readout of the assay was fluorescence measured with a Varioskan™ Flash Multimode Reader (Thermo Fisher Scientific, Ermelo, The Netherlands) at 320 nm excitation and 420 nm emission wavelength. The measurements were performed at 37 °C after 1 h and after 2 h from the start of addition of the assay solution to the plates. Between the two time points, the plates were incubated at 37 °C. The activity of ACE in the wells was expressed as the slope of the kinetic curve that resulted from the two time point measurements. The resulting slopes were normalized and plotted in a graph versus time of each nanofraction collected using the GraphPad Prism 6 software (La Jolla, CA, USA). The slopes were normalized by dividing each slope value with the median of all the values obtained in a single measurement.
The dose-response curves of all four synthetic peptides were determined and the IC50 values for each peptide were determined in the ACE bioactivity assay.
The serial dilutions of the peptides were tested in the assay using 1 mU/mL ACE enzyme and
40 µM substrate concentration.

[2] = target: T1, angiotensin-converting enzyme (ACE) from rabbit lung; format: biochemical; design: angiotensin-converting enzyme (ACE) from rabbit lung; purchased Sigma-Aldrich (Zwijndrecht, The Netherlands); host or cells: rabbit lung tissue; settings: peptide in bioactive wells after LC nanofractionation of crude venom, sequenced by nanoLC-MS/MS
Source text: Water was purified using a Milli-Q Plus system from Millipore (Amsterdam, The Netherlands). Acetonitrile (ACN) (ULC/MS grade) and formic acid (FA) were obtained from Biosolve (Valkenswaard, The Netherlands). […] DMSO was obtained from Riedel-de Haën (Zwijndrecht, The Netherlands). Most snake venoms were obtained commercially from Kentucky Reptile Zoo (USA), Ventoxin (USA), Biotoxin (USA), Venom Supplies (Tanunda, Australia), and African Reptiles & Venoms (Johannesburg, South Africa). The Boiga irregularis and Gloydius blomhoffii venoms were kind gifts from Prof. Steve Mackessy (University of Northern Colorado, USA) and Prof. Sadaaki Iwanaga (Kyushu University, Japan), respectively. Lyophilized venoms were kept at −20 °C. Prior to analysis, snake venoms were diluted in water to an end concentration of approximately 5.0 ± 0.1 mg/mL. After analysis, the samples were kept at −80 °C for later re-analysis.
Liquid chromatography separation was performed on a Shimadzu (‘s-Hertogenbosch, The Netherlands) UPLC system controlled via the Shimadzu Lab Solutions software. Sample injection was performed with a Shimadzu SIL-30AC autosampler using a 50-μL injection volume for RPLC separation and a 20-μL injection volume for HILIC separation. A gradient separation was performed on a Waters (Milford, MA) xBridge C18 column (100 × 4.6 mm; 5 μm) with an xBridge C18 guard column (10 × 4.6 mm; 5 μm) in RPLC mode. In HILIC mode, an Atlantis™ HILIC silica column (150 × 2.1 mm; 3 μm) was used. The columns were thermostated at 37 °C in a Shimadzu CTD-30A column oven. The solvent delivery was performed with two Shimadzu LC-30AD parallel pumps with 0.6 and 0.15 mL/min total flow rates for RPLC and HILIC separation, respectively. The mobile phases consisted of eluent A (98% H2O, 2% ACN, and 0.1% FA) and eluent B (98% ACN, 2% H2O, and 0.1% FA). The setup was optimized and validated in RPLC mode using the following gradient: a linear increase from 0 to 30% B in 20 min followed by 5-min isocratic elution at 30% B and a subsequent decrease to 0% B in 1 min with a 5-min equilibration time. The snake venoms screening for ACE activity was performed both in RPLC and HILIC mode. In the RPLC mode, venoms were analyzed using a 20-min linear gradient from 0 to 50% B followed by a linear increase to 90% B in 2 min and then a 2-min isocratic elution at 90% B before going back to 0% B in 1 min. The column was then equilibrated for 5 min. In the HILIC mode, separation started at 50% B and decreased linearly to 0% B in 20 min. This was followed by 4-min column washing at 0% B and a subsequent increase to 50% B in 1 min. The column was then equilibrated for 10 min. After the column, a flow split was introduced in a 1:9 ratio. The larger flow portion was directed to a Gilson 235P autosampler for 6-s nanofractionation onto black 384-well plates (Greiner Bio One, Alphen aan den Rijn, The Netherlands). The nanofractionated plates were subsequently dried in a Christ Rotational Vacuum Concentrator (Salm en Kipp, Breukelen, The Netherlands) RVC 2−33 CD plus and then stored at −20 °C until use. Ariadne, an in-house written software, was used to control the nanofractionation. The smaller flow portion was directed towards a Shimadzu SPD-M20A prominence diode array detector followed by a Waters Ultima quadrupole–time-of-flight (q–TOF) mass spectrometer equipped with an electrospray ionization (ESI) source. […]

[3] = target: T1, angiotensin-converting enzyme (ACE) from rabbit lung; settings: Fig. S1; for Vmax: normalized response
Procedure: as §1
In the presence of an ACE inhibitor, a drop in the basal fluorescence is detected.
This was done by performing enzyme kinetic experiments using different substrate and enzyme concentrations. In total, five different enzyme concentrations (2.5, 5, 10, 20, and 40 mU) were tested in the ACE bioactivity assay, at eight substrate concentrations (5–500 μM), in a matrix fashion. […] Therefore, the results excluding the highest concentration tested (500 μM) were fitted into a Michaelis-Menten enzyme kinetic model. […] The data presented was normalized for comparison reasons (ESM Fig. S1). […] However, when using sufficiently long incubation times, low enzyme concentrations will yield a sufficient assay window for obtaining good S/N, also in combination with much lower than the Km substrate concentrations. In practice, these assay conditions allowed for two measurement points at 1 and 2 h after the beginning of the incubation resulting in repeatable slope determination of the enzymatic product formation.

CC[C@H](C)[C@H](NC(=O)[C@@H]1CCC(=O)N1)C(=O)N[C@@H](Cc1c[nH]c2ccccc12)C(=O)N1CCC[C@H]1C(=O)N[C@@H](CCCNC(=N)N)C(=O)N1CCC[C@H]1C(=O)N[C@@H](Cc1c[nH]cn1)C(=O)N[C@H](C(=O)N1CCC[C@H]1C(=O)N1CCC[C@H]1C(=O)O)C(C)C ([pGlu]IWPRPHVPP-OH)
pIC50 [1]: 6.00

[pGlu]NWPRPKVPP
ACE inhibitory peptide assigned to bioactivity peak (in words) [2]: ACE inhibitory peptides

pEQWPPGHH(I/L)PP
ACE inhibitory peptide assigned to bioactivity peak (in words) [2]: ACE inhibitory peptides
ACE inhibitory peptide assigned to bioactivity peak (in words) ([2]; listed as peptide with m/z 1276): major bioactive compounds

Nc1ccccc1C(=O)NCC(=O)N[C@@H](Cc1ccc([N+](=O)[O-])cc1)C(=O)N1CCC[C@H]1C(=O)O [M1100, o-Aminobenzoylglycyl-p-nitro-L-phenylalanyl-L-proline] (H-[2Abz]G[Phe(4-NO2)]P-OH)
Km ([3]; 2.5 mU ACE): 46.8 µM
Vmax ([3]; 2.5 mU ACE): 120.0
Km ([3]; 5 mU ACE): 79.4 µM
Vmax ([3]; 5 mU ACE): 129.3
Km ([3]; 10 mU ACE): 56.3 µM
Vmax ([3]; 10 mU ACE): 122.9
Km ([3]; 20 mU ACE): 65.9 µM
Vmax ([3]; 20 mU ACE): 126.5
Km ([3]; 40 mU ACE): 65.4 µM
Vmax ([3]; 40 mU ACE): 126.6

CC[C@H](C)[C@H](NC(=O)[C@@H]1CCCN1C(=O)[C@@H]1CCCN1C(=O)[C@H](CCCNC(=N)N)NC(=O)[C@@H]1CCCN1C(=O)[C@@H]1CCCN1C(=O)[C@H](Cc1c[nH]c2ccccc12)NC(=O)[C@@H]1CCCN1C(=O)[C@@H]1CCCN1C(=O)[C@H](Cc1c[nH]c2ccccc12)NC(=O)[C@@H]1CCC(=O)N1)C(=O)N1CCC[C@H]1C(=O)N1CCC[C@H]1C(=O)O ([pGlu]WPPWPPRPPIPP-OH; C-terminus assumed)
pIC50 [1]: 5.46

CC(C)C[C@H](NC(=O)[C@@H]1CCCN1C(=O)[C@@H]1CCCN1C(=O)[C@H](CCCNC(=N)N)NC(=O)[C@@H]1CCCN1C(=O)[C@@H]1CCCN1C(=O)[C@H](Cc1c[nH]c2ccccc12)NC(=O)[C@@H]1CCCN1C(=O)[C@@H]1CCCN1C(=O)[C@H](Cc1c[nH]c2ccccc12)NC(=O)[C@@H]1CCC(=O)N1)C(=O)N1CCC[C@H]1C(=O)N1CCC[C@H]1C(=O)O ([pGlu]WPPWPPRPPLPP-OH)
pIC50 [1]: 5.47

CC(C)C[C@H](NC(=O)[C@@H]1CCC(=O)N1)C(=O)N[C@@H](Cc1c[nH]c2ccccc12)C(=O)N1CCC[C@H]1C(=O)N[C@@H](CCCNC(=N)N)C(=O)N1CCC[C@H]1C(=O)N[C@@H](Cc1c[nH]cn1)C(=O)N[C@H](C(=O)N1CCC[C@H]1C(=O)N1CCC[C@H]1C(=O)O)C(C)C ([pGlu]LWPRPHVPP-OH)
pIC50 [1]: 5.96

pEWPPWPPRPP(I/L)PP
ACE inhibitory peptide assigned to bioactivity peak (in words) [2]: bioactive peptide

pE(I/L)WPRPHVPP
ACE inhibitory peptide assigned to bioactivity peak (in words) [2]: major bioactive compounds
